Measurements as given in patent US11708366B2, “Heteroaryl substituted spiropiperidinyl derivatives and pharmaceutical uses thereof” (Novartis AG, priority 2020, dated 2023).
Where two headings read alike, the source gives them in different places.

Target: LTC4S (Homo sapiens (Human), UniProt Q16873)
Test: Human whole blood HTRF assay (LTC4 release after calcium ionophore A23187)
Type: cell-based
Conditions: calcium ionophore A23187 stimulation, LTC4 by HTRF
Experimental: B. Human Whole Blood HTRF Assay
LTC4 synthase catalyzes the conversion of Leukotriene A4 (LTA4) to Leukotriene C4 (LTC4) in the presence of reduced glutathione (GSH) as a co-substrate. For testing the inhibition of LTC4S, compounds are prepared for either eight-point or sixteen-point dose response studies in 384-well Labcyte low dead volume (LDV) plates. For eight-point dose response studies, compounds are diluted 1:5 starting at 1 μM concentration in 90% DMSO. […] Compounds are studied in duplicates. Ten wells are filled with 90% DMSO which correspond to the stimulated and unstimulated control wells. […] The morning of the assay, whole blood is collected from three human donors. Donors must be non-smokers and must not have taken NSAIDs within the 48 hours prior to blood collection. The amount of blood collected per donor depends on the amount of compounds to be tested and the dose response format in which they are to be studied (about 8 mL of whole blood for either 22 compounds in 8-point dose response format or 11 compounds in 16-point dose response format). […] 50 μL of diluted blood are then dispensed into each assay plate well with pre-dispensed compounds and DMSO for the stimulated and unstimulated controls using a Thermo Scientific™ Multidrop™ Combi reagent dispenser, and incubated at 37° C. for 4 hours. Calcium ionophore A23187 is used to induce a rapid increase in intracellular levels of Ca^2+. The Ca^2+ functions as a universal second messenger in various immune cells, such as T cells, B cells and mast cells, and is used to induce degranulation and release of eicosanoids, including LTC4, by cells contained in the whole blood samples. […] All but the unstimulated control wells are subsequently stimulated by dispensing 1 μL of the 0.5 mg/mL calcium ionophore suspension using the Thermo Scientific™ Multidrop™ Combi reagent dispenser. Plates are incubated for 15 minutes at 37° C. Plates are then centrifuged at 300 g for 10 minutes at room temperature to pellet blood cells and stop the reaction. […] Plates are sealed and stored at −80° C.
In order to measure the amount of LTC4 released by cells in the human blood samples during calcium ionophore stimulation, supernatants are analyzed using the Cisbio LTC4 homogeneous time-resolved FRET (HTRF) kit (Cisbio #64LC4PEH). […] Ten serially diluted standard curve solutions are also dispensed in duplicate into each plate as instructed in the protocol. Blank controls and cryptate control wells are also prepared. Then, 5 μL of anti-LTC4-d2 working solution are dispensed into all the wells, but the cryptate control wells. Subsequently, 5 μL of anti-LTC4-Eu3+ cryptate working solution are dispensed into all the wells. Plates are then covered with a lid and incubated at room temperature for one hour with gentle orbital shaking (˜450 rpm). […] HTRF ratios are calculated for each well by dividing the 665 nm intensity by the 620 nm intensity, and multiplying the resulting ratio by 10,000. LTC4 standard curves are interpolated for each plate and used to convert the HTRF ratio readouts into the amount of LTC4 present in each well (in ng/mL). Parametric curve fitting is used to obtain inhibition curves and IC50 values.

[1] = human whole blood diluted 1:3, 4 h incubation, read-out: human whole blood HTRF IC50

## O=C1CCCC2(CCN(c3cc(-n4cc(C(F)(F)F)cn4)nc(Cl)n3)CC2)N1c1ccc(F)c(F)c1 [Example 69, 9-(2-chloro-6-(4-(trifluoromethyl)-1H-pyrazol-1-yl)pyrimidin-4-yl)-1-(3,4-difluorophenyl)-1,9-diazaspiro[5.5]undecan-2-one]
[1]
  IC50: 35 nM

## Nc1cc(N2CCC3(CCCC(=O)N3c3ccc(F)c(F)c3)CC2)nc(-c2ccccn2)n1 [Example 63, 9-(6-amino-2-(pyridin-2-yl)pyrimidin-4-yl)-1-(3,4-difluorophenyl)-1,9-diazaspiro[5.5]undecan-2-one]
[1]
  IC50: 430 nM

## O=C1CCCC2(CCN(c3cc(-n4cc(F)cn4)ncn3)CC2)N1c1ccc(F)c(F)c1 [Example 56, 9-(6-(4-fluoro-1H-pyrazol-1-yl)pyrimidin-4-yl)-1-(3,4-difluorophenyl)-1,9-diazaspiro[5.5]undecan-2-one]
[1]
  IC50: 17 nM

## Nc1nc(OCCO)cc(N2CCC3(CCCC(=O)N3c3ccc(F)c(F)c3)CC2)n1 [Example 94, 9-(2-amino-6-(2-hydroxyethoxy)pyrimidin-4-yl)-1-(3,4-difluorophenyl)-1,9-diazaspiro[5.5]undecan-2-one]
[1]
  IC50: 830 nM

## CC(C)Oc1cc(N2CCC3(CCCC(=O)N3c3ccc(F)c(F)c3)CC2)nc(N)n1 [Example 93, 9-(2-amino-6-isopropoxypyrirnidin-4-yl)-1-(3,4-difluorophenyl)-1,9-diazaspiro[5.5]undecan-2-one]
[1]
  IC50: 10 nM

## O=C1CCCC2(CCN(c3nc(Cl)cc(O[C@@H]4CCOC4)n3)CC2)N1c1ccc(F)c(F)c1 [Example 72, (R)-9-(4-chloro-6-((tetrahydrofuran-3-yl)oxy)pyrimidin-2-yl)-1-(3,4-difluorophenyl)-1,9-diazaspiro[5.5]undecan-2-one]
[1]
  IC50: 760 nM

## O=C1CCCC2(CCN(c3cc(-n4cnc(C(F)(F)F)c4)ncn3)CC2)N1c1ccc(F)c(F)c1 [Example 58, 1-(3,4-difluorophenyl)-9-(6-(4-(trifluoromethyl)-1H-imidazol-1-yl)pyrimidin-4-yl)-1,9-diazaspiro[5.5]undecan-2-one]
[1]
  IC50: 560 nM

## O=C1CCCC2(CCN(c3cc(OC4COC4)nc(C(F)(F)F)n3)CC2)N1c1ccc(F)c(F)c1 [Example 61, 1-(3,4-difluorophenyl)-9-(6-(oxetan-3-yloxy)-2-(trifluoromethyl)pyrimidin-4-yl)-1,9-diazaspiro[5.5]undecan-2-one]
[1]
  IC50: 29 nM

## Nc1nc(N2CCC3(CCOC(=O)N3c3ccc(F)c(F)c3)CC2)cc(-n2cc(C(F)(F)F)cn2)n1 [Example 115, 9-(2-amino-6-(4-(trifluoromethyl)-1H-pyrazol-1-yl)pyrimidin-4-yl)-1-(3,4-difluorophenyl)-3-oxa-1,9-diazaspiro[5.5]undecan-2-one]
[1]
  IC50: 28 nM

## O=C1CCCC2(CCN(c3cc(=O)n(Cc4ccccc4)nc3OC3CCOCC3)CC2)N1c1ccc(F)c(F)c1 [Example 15b, 9-(1-benzyl-6-oxo-3-((tetrahydro-2H-pyran-4-yl)oxy)-1,6-dihydropyridazin-4-yl)-1-(3,4-difluorophenyl)-1,9-diazaspiro[5.5]undecan-2-one]
Human whole blood HTRF IC50, human whole blood diluted 1:3, 4 h incubation
  IC50: 180 nM

## Nc1nc(OC2CCOCC2)cc(N2CCC3(CC2)C[C@H](F)CC(=O)N3c2ccc(F)c(F)c2)n1 (single isomer, unassigned) [Example 116a, (R)-9-(2-amino-6-((tetrahydro-2H-pyran-4-yl)oxy)pyrimidin-4-yl)-1-(3,4-difluorophenyl)-4-fluoro-1,9-diazaspiro[5.5]undecan-2-one, or (S)-9-(2-amino-6-((tetrahydro-2H-pyran-4-yl)oxy)pyrimidin-4-yl)-1-(3,4-difluorophenyl)-4-fluoro-1,9-diazaspiro[5.5]undecan-2-one]
[1]
  IC50: 13 nM

## O=C1CCCC2(CCN(c3cc(OCC(F)(F)F)nc(Cl)n3)CC2)N1c1ccc(F)c(F)c1 [Example 88, 9-(2-chloro-6-(2,2,2-trifluoroethoxy)pyrimidin-4-yl)-1-(3,4-difluorophenyl)-1,9-diazaspiro[5.5]undecan-2-one]
[1]
  IC50: 1370 nM
